This note sets out measurements from US20260200928A1, “THERAPEUTIC COMPOUNDS” (Sanofi, priority 2022, published 2026).

Each structure is given as a SMILES string. pIC50: −log10 of the molar value.

The experiment deals with T1, human IL-17A (Homo sapiens, UniProt Q16552).
T1 construct: purchased R&D Systems 7955-IL/CF
T1 sequence (Q16552 24-155): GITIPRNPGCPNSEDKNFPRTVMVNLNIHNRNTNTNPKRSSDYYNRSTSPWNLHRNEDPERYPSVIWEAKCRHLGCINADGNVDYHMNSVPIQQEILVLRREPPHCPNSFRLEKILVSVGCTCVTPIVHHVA
Put plainly: IL-17A AlphaLISA competition assay (block of IL-17A binding to its receptor IL-17RA). Conditions: mean IC50 (n≥2), block of IL-17A binding to IL-17RA. The essentials: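 Bead-based AlphaLISA competition in PBS with 0.05% Tween-20 and 0.1% BSA: compound first meets human IL-17A (7.5 nM stock) for 30 min, then IL-17RA/Fc (5 nM stock) for 90 min, all at room temperature, before acceptor/donor bead capture. IC50 fitted 4-parameter, DMSO and 4 μM reference inhibitor as controls; at least duplicate.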
In the case of `CCC(c1ccnc(NC(=O)C(NC(=O)c2nonc2C2CC2)C2CCC(C)CC2)c1)N1CC(C(F)(F)F)NC1=O` [Example 257, 4-cyclopropyl-N-((S)-1-((1r,4S)-4-methylcyclohexyl)-2-oxo-2-((4-((R)-1-((S)-2-oxo-4-(trifluoromethyl)imidazolidin-1-yl)propyl)pyridin-2-yl)amino)ethyl)-1,2,5-oxadiazole-3-carboxamide], the pIC50 (commonly −log10 of the IC50, conventionally taken in molar units) is 7.49.

Take `Cc1nonc1C(=O)N[C@H](C(=O)Nc1cc([C@@H](C)N2C[C@@H](C(F)(F)F)NC2=O)ccn1)[C@H]1CC[C@H](C)CC1` [Example 237, 4-methyl-N—((S)-1-((1r,4S)-4-methylcyclohexyl)-2-oxo-2-((4-((R)-1-((S)-2-oxo-4-(trifluoromethyl)imidazolidin-1-yl)ethyl)pyridin-2-yl)amino)ethyl)-1,2,5-oxadiazole-3-carboxamide]: the pIC50 was 7.66.

For `CC(C)n1nccc1C(=O)N[C@H](C(=O)Nc1cc(CN2C[C@@H](C(F)(F)F)NC2=O)ccn1)[C@@H](C)OC(C)(C)C` [Example 127, N-((2S,3R)-3-(tert-butoxy)-1-oxo-1-((4-(((S)-2-oxo-4-(trifluoromethyl)-imidazolidin-1-yl)methyl)-pyridin-2-yl)amino)butan-2-yl)-1-isopropyl-1H-pyrazole-5-carboxamide], the pIC50 was 6.36.

`CCn1nccc1C(=O)N[C@H](C(=O)Nc1cc(C(C2CC2)N2C[C@@H](C(F)(F)F)NC2=O)ccn1)C1CCC(F)(F)CC1` (single isomer, unassigned) [Example 165, N-((1S)-2-((4-((R or S)-cyclopropyl((S)-2-oxo-4-(trifluoromethyl)imidazolidin-1-yl)methyl)pyridin-2-yl)amino)-1-(4,4-difluorocyclohexyl)-2-oxoethyl)-1-ethyl-1H-pyrazole-5-carboxamide] showed a pIC50 of 7.39.

As to `CCc1nocc1C(=O)NC(C(=O)Nc1cc([C@@H](COC)N2C[C@@H](C(F)(F)F)NC2=O)ccn1)C1CCC(F)CC1` (single isomer, unassigned) [Example 286], the pIC50 is 7.40.

Take `COC[C@H](c1ccnc(NC(=O)[C@@H](NC(=O)c2nonc2C)C(C2CC2)C2CC2)c1)N1C[C@@H](C(F)(F)F)NC1=O` [Example 226, N—((S)-1,1-Dicyclopropyl-3-((4-((S)-2-methoxy-1-((S)-2-oxo-4-(trifluoro-methyl)imidazolidin-1-yl)ethyl)pyridin-2-yl)amino)-3-oxopropan-2-yl)-4-methyl-1,2,5-oxadiazole-3-carboxamide]: the pIC50 is 7.38.

As to `COC[C@H](c1ccnc(NC(=O)C(NC(=O)c2nonc2C2CC2)C2CCC(C)(F)CC2)c1)N1C[C@@H](C(F)(F)F)NC1=O` (single isomer, unassigned) [Example 297], the pIC50 was 5.32.

Take `COC[C@H](c1ccnc(NC(=O)C(NC(=O)c2conc2C)C2CCC(F)CC2)c1)N1C[C@@H](C(F)(F)F)NC1=O` (single isomer, unassigned) [Example 283]: the pIC50 was 7.01.

Regarding `CC(C)(C)OC(=O)N1CCn2c(ccc2C(=O)N[C@H](C(=O)Nc2cc(CN3C[C@@H](C(F)(F)F)NC3=O)ccn2)[C@H]2CC[C@H](C)CC2)C1` [Example 7, Tert-butyl 6-(((S)-1-((1r,4S)-4-methylcyclohexyl)-2-oxo-2-((4-(((S)-2-oxo-4-(trifluoromethyl)imidazolidin-1-yl)methyl)pyridin-2-yl)amino)ethyl)-carbamoyl)-3,4-dihydropyrrolo[1,2-a]pyrazine-2(1H)-carboxylate], the pIC50 was 6.39.

Take `COCC(c1ccnc(NC(=O)[C@@H](NC(=O)c2nonc2C2CC2)C2CCC(F)(F)CC2)c1)[C@H]1C[C@@H](C(F)(F)F)NC1=O` (single isomer, unassigned) [Example 186, 4-Cyclopropyl-N-((1S)-1-(4,4-difluorocyclohexyl)-2-((4-((R or S)-2-methoxy-1-((3R,5S)-2-oxo-5-(trifluoromethyl)pyrrolidin-3-yl)ethyl)pyridin-2-yl)amino)-2-oxoethyl)-1,2,5-oxadiazole-3-carboxamide]: the pIC50 was 7.16.

Regarding `CCc1conc1C(=O)N[C@H](C(=O)Nc1cc([C@@H](COC)N2CC(F)(F)CNC2=O)ccn1)C1CCC(F)(F)CC1` [Example 177, N-((S)-2-((4-((S)-1-(5,5-difluoro-2-oxotetrahydropyrimidin-1(2H)-yl)-2-methoxyethyl)pyridin-2-yl)amino)-1-(4,4-difluorocyclohexyl)-2-oxoethyl)-4-ethylisoxazole-3-carboxamide], the pIC50 was 7.62.

`CCc1conc1C(=O)NC(C(=O)Nc1cc([C@@H](C(C)C)N2C[C@@H](C(F)(F)F)NC2=O)ccn1)C1CCC(F)(F)CC1` (stereo in doubt) [Example 159, N—((S)-1-(4,4-difluorocyclohexyl)-2-((4-((R)-2-methyl-1-((S)-2-oxo-4-(trifluoromethyl)imidazolidin-1-yl)propyl)pyridin-2-yl)amino)-2-oxoethyl)-4-ethylisoxazole-3-carboxamide]: the pIC50 is 7.52.

`CC[C@H](c1ccnc(NC(=O)[C@@H](NC(=O)c2nonc2C)[C@H]2CC[C@H](C)CC2)c1)N1C[C@@H](C(F)(F)F)NC1=O` [Example 256, 4-methyl-N—((S)-1-((1r,4S)-4-methylcyclohexyl)-2-oxo-2-((4-((R)-1-((S)-2-oxo-4-(trifluoromethyl)imidazolidin-1-yl)propyl)pyridin-2-yl)amino)ethyl)-1,2,5-oxadiazole-3-carboxamide] showed a pIC50 of 7.47.

The compound `CC(C)n1nccc1C(=O)N[C@H](C(=O)Nc1cc(C(NC(=O)CCC(F)(F)F)C2CC2)ccn1)C(C1CC1)C1CC1` (single isomer, unassigned) [Example 41] gave a pIC50 of 6.55.

Turning to `COC[C@H](c1ccnc(NC(=O)C(NC(=O)c2ccnn2C)C2CCC(F)CC2)c1)N1C[C@@H](C(F)(F)F)NC1=O` (single isomer, unassigned) [Example 288], the pIC50 is 7.08.

On to `Cc1n[nH]c(C)c1Cc1ccnc(NC(=O)[C@@H](NC(=O)OC(C)(C)C)[C@H]2CC[C@H](C)CC2)c1` [Example 79, Tert-butyl ((S)-2-((4-((3,5-dimethyl-1H-pyrazol-4-yl)methyl)pyridin-2-yl)amino)-1-((1r,4S)-4-methylcyclohexyl)-2-oxoethyl)carbamate], for which the pIC50 is 5.28.

The compound `COC[C@H](c1ccnc(NC(=O)[C@@H](NC(=O)c2nocc2C)C2CCC(F)(F)CC2)c1)N1C[C@@H](C(F)(F)F)NC1=O` [Example 196, N-((S)-1-(4,4-difluorocyclohexyl)-2-((4-((S)-2-methoxy-1-((S)-2-oxo-4-(trifluoromethyl)imidazolidin-1-yl)ethyl)pyridin-2-yl)amino)-2-oxoethyl)-4-methylisoxazole-3-carboxamide] gave a pIC50 of 7.41.

Turning to `COC[C@H](c1ccnc(NC(=O)C(NC(=O)c2ccnn2C(C)C)C2CCC(F)CC2)c1)N1C[C@@H](C(F)(F)F)NC1=O` (single isomer, unassigned) [Example 289], the pIC50 was 6.90.

`Cc1nonc1C(=O)N[C@@H](COC(C)(C)C(F)(F)F)C(=O)Nc1cc(CN2C[C@@H](C(F)(F)F)NC2=O)ccn1` [Example 273, 4-methyl-N—((S)-1-oxo-1-((4-(((S)-2-oxo-4-(trifluoromethyl)-imidazolidin-1-yl)methyl)pyridin-2-yl)amino)-3-((1,1,1-trifluoro-2-methylpropan-2-yl)oxy)propan-2-yl)-1,2,5-oxadiazole-3-carboxamide] had a pIC50 of 6.39.
